In brackets after ≈: the same amount, converted by molar mass. Some results are limits rather than exact numbers.

The test system of one data set is HIV-1IIIB. The data set can be described thus: microbe, parasite or virus in culture. In kind it is cell-based. The conditions noted are these: for EC50: Human immunodeficiency virus 1, 72 h, read-out: anti-HIV-1 EC50 (syncytia formation induced by HIV-1IIIB). Here is the method: (§1) In the presence of 100 μL various concentrations of compounds, C8166 cells (4 × 10^5/mL) were infected with virus (HIV-1IIIB) at a multiplicity of infection (M.O.I) of 0.06. The final volume per well was 200 μL. Control assays were performed without the testing compounds in HIV-1IIIB infected and uninfected cultures. AZT was included as positive control. After 3 days of culture, the cytopathic effect (CPE) was measured by counting the number of syncytia (multinucleated giant cell). Percentage inhibition of syncytia formation was calculated and 50% effective concentration (EC50) was calculated.
as §1, with “c. Syncytia assay. In” for “In”, “(4×10^5/mL)” for “(4 × 10^5/mL)”, “calculated ^[3].” for “calculated.”

The subject of another data set is C8166. Description: in vitro. In kind it is cell-based. Conditions: C8166 cells, MTT, 3 days. Here is the method: (§2) Cellular toxicity of compounds was assessed by MTT method. Briefly, cells were seeded on a microtiter plate in the absence or presence of various concentrations of compounds in triplicate and incubated at 37 °C in a humid atmosphere of 5% CO2 for 3 days. Twenty microliters of MTT reagent (5 mg/mL in PBS) was added to each well, then incubated at 37 °C for 4 h, 100 μL of 50% DMF-20% SDS was added. After the formazan was dissolved completely, the plates were read on a Bio-Tek ELx 800 ELISA reader at 595 nm/630 nm (A595/630). The cytotoxic concentration that caused the reduction of viable cells by 50% (CC50) was calculated from dose–response curve.
as §2, with “b. MTT-based cytotoxicity assay. Cellular” for “Cellular”, “4h,” for “4 h,”, “595nm/630” for “595 nm/630”, “dose-response curve ^[2].” for “dose–response curve.”

A further data set has as its system pNL4-3gp41(36G)V38A,N42T. In kind it is cell-based, HIV-1. Conditions: T20-resistant strain pNL4-3gp41(36G)V38A,N42T in C8166 cells.
Data set [1] deals with T1, purified recombinant HIV-1 RT (Human immunodeficiency virus type 1 group M subtype B, UniProt P04585).
T1 construct: purified recombinant HIV-1 RT; purchased Roche
The data set can be described thus: RT (reverse transcriptase) assay, ELISA RT kit. In kind it is biochemical. Conditions: read-out: EC50, inhibition of recombinant HIV-1 RT activity (converted). The method, then:
HIV-1 RT activity was measured by ELISA RT kit (Roche) using a commercially available kit according to the protocol provided by the manufacturer. Samples were incubated with DIG-labeled-reaction mixture at 37 °C for 15 h. Anti-DIG-POD solution was added afterward followed by substrate ABTS. The absorbance at 405/490 nm (A405/490) was determined in the ELISA reader.
e. RT (reverse transcriptase) assay. HIV-1 RT activity was measured by ELISA RT kit (Roche) using a commercially available kit according to the protocol provided by the manufacturer. Samples were incubated with DIG-labeled-reaction mixture at 37 °C for 15 h. Anti-DIG-POD solution was added afterward followed by substrate ABTS. The absorbance at 405/490 nm (A405/490) was determined in the ELISA reader ^[4].
A general note: In an ELISA, binding on a coated surface is turned into a signal by an enzyme label.

For data set [2], the system named is fusion of H9/HIV-1IIIB cells with uninfected C8166 cells. The data set can be described thus: cells. The conditions noted are these: Human immunodeficiency virus 1, C8166, 6 h, read-out: EC50, inhibition of fusion of H9/HIV-1IIIB cells with uninfected C8166 cells.
Protocol: (§3) C8166 cells (3 × 10^4) co-cultured with 1 × 10^4 virus (HIV-1IIIB) infected H9 cells in the presence or absence of the compound with various concentrations at 37 °C in a humidified atmosphere of 5% CO2. T20 was used as positive control. After 6 h incubation, the number of syncytia was scored under an inverted microscope [18].
(§4) Co-cultivation assay. C8166 cells (3×10^4) co-cultured with 1×10^4 virus (HIV-1IIIB) infected H9 cells in the presence or absence of the compound with various concentrations at 37 °C in a humidified atmosphere of 5% CO2. Dextran sulfate (DS) was used as positive control. After 6 h incubation, the number of syncytia was scored under an inverted microscope ^[3].
Another data set concerns pNL4-3gp41(36G)V38E,N42S. The data set is classed as cell-based, HIV-1. Conditions: T20-resistant strain pNL4-3gp41(36G)V38E,N42S in C8166 cells.
Another data set in a line: in vitro. In kind it is cell-based. Conditions: human; C8166 cells, MTT, 3 days; read-out: cytotoxicity CC50. The method, then: as §2
as §2, with “b. MTT-based cytotoxicity assay. Cellular” for “Cellular”, “4h,” for “4 h,”, “595nm/630” for “595 nm/630”, “dose-response curve ^[2].” for “dose–response curve.”

For data set [3], the system named is fusion of H9/HIV-1IIIB cells with uninfected C8166 cells. The conditions noted are these: 6 h.
Protocol: as §3, §4
For another data set, the system named is HIV-1. Conditions: cited from earlier work.
[4] abbreviates: C8166 cells, HIV-1IIIB, M.O.I 0.06, 3 days.

In the case of `Cc1cn([C@H]2C[C@H](N=[N+]=[N-])[C@@H](CO)O2)c(=O)[nH]c1=O` [AZT, reference compound], the “anti-HIV-1 EC50 (syncytia formation induced by HIV-1IIIB)” value in the data set on HIV-1IIIB (setting [4]) is 0.00508 µg/mL. The “cytotoxicity CC50” value in the data set on C8166 is 1006.69 µg/mL.

A word on the CC50: it is the concentration giving 50% cytotoxicity. For `C=C1C=C2C3(O)C1OC(=O)C(C)CCCCCCC(C)CC(C)(O)C1(O)C4OC5(c6ccccc6)OC1C(C1OC1(CO)C3O)C2(O5)C4C` (stereo not drawn) [Compound 1, Trigonolactone B], the results for the EC50 (in the data set with HIV-1IIIB (setting [4]); in [1]; in data set [2]) were 0.00106 µg/mL (≈ 1.55 nM), more than 439 µM and 0.00225 µg/mL (≈ 3.3 nM), respectively. The “EC50 (syncytium formation)” value with pNL4-3gp41(36G)V38A,N42T came to 0.0026 µg/mL (≈ 3.81 nM); with pNL4-3gp41(36G)V38E,N42S it was 0.0033 µg/mL (≈ 4.83 nM). For the same compound, the CC50 in “in vitro” came to 16.5 µg/mL (≈ 24100 nM).

On to `C=C1C=C2C3(O)C1OC(=O)C(C)CCCCCCC(C)CC(O)(COC(=O)c1ccccc1O)C1(O)C4OC5(c6ccccc6)OC1C(C1OC1(CO)C3O)C2(O5)C4C` (stereo not drawn) [Compound 2, Trigonolactone D], for which the “selectivity index CC50/EC50” value with HIV-1IIIB (C8166 cells, HIV-1IIIB) came out at 4468.42. Also, the EC50 was 0.0019 µg/mL (≈ 2.32 nM) in the data set on HIV-1IIIB (setting [4]), 60.2 µM in data set [1] and 0.00462 µg/mL (≈ 5.64 nM) in data set [2]. Moreover, the “EC50 (syncytium formation)” value in the data set on pNL4-3gp41(36G)V38A,N42T worked out at 0.00583 µg/mL (≈ 7.12 nM); in the data set on pNL4-3gp41(36G)V38E,N42S, 0.00272 µg/mL (≈ 3.32 nM). Also, in “in vitro”, the CC50 came to 8.49 µg/mL (≈ 10400 nM).

Take `C=C1C=C2C3(O)C1OC(=O)C(C)CCCCCCC(C)CC(O)(CO)C1(O)C4OC5(c6ccccc6)OC1C(C1OC1(CO)C3O)C2(O5)C4C` (stereo not drawn) [Compound 3, Trigonolactone E]: the “selectivity index CC50/EC50” value with HIV-1IIIB (C8166 cells, HIV-1IIIB) was determined as 29610.17. Moreover, the EC50 in the data set with HIV-1IIIB (setting [4]) is 0.00059 µg/mL (≈ 0.844 nM); in data set [1], more than 429 µM; in [2] it was 0.00185 µg/mL (≈ 2.65 nM). The “EC50 (syncytium formation)” value in the data set with pNL4-3gp41(36G)V38E,N42S was 0.00443 µg/mL (≈ 6.34 nM). In addition, the CC50 in “in vitro” amounted to 17.5 µg/mL (≈ 25000 nM).

Consider `CC1CCCCCCC(C)C(=O)OC2C(=CCl)C=C3C2(O)C(O)C2(CO)OC2C2C4OC5(c6ccccc6)OC(C(C)C32O5)C4(O)C(C)(O)C1` (stereo not drawn) [Compound 4, Trigocherriolide B], for which, in the data set on HIV-1IIIB (C8166 cells, HIV-1IIIB), the “selectivity index CC50/EC50” value was 1811.43. The EC50 was 0.00822 µg/mL (≈ 11.5 nM) in the data set with HIV-1IIIB (setting [4]), 278 µM in data set [1] and 0.00873 µg/mL (≈ 12.2 nM) in data set [2]. In the data set with pNL4-3gp41(36G)V38E,N42S, the “EC50 (syncytium formation)” value worked out at 0.00297 µg/mL (≈ 4.14 nM). In addition, the CC50 in the data set “in vitro” is 14.9 µg/mL (≈ 20800 nM).

`CC1CCCCCCC(C)C(=O)OC2C(=CCl)C=C3C2(O)C(O)C2(CO)OC2C2C4OC5(c6ccccc6)OC(C(C)C32O5)C4(O)C(O)(COC(=O)c2ccccc2O)C1` (stereo not drawn) [Compound 5, Trigocherriolide A]: in the data set on HIV-1IIIB (C8166 cells, HIV-1IIIB), the “selectivity index CC50/EC50” value is given as 5407.67. Besides, the values for the EC50 (in the data set on HIV-1IIIB (setting [4]); in data set [1]; in [2]) were 0.00287 µg/mL (≈ 3.36 nM), 313 µM and 0.00106 µg/mL (≈ 1.24 nM), respectively. Besides, the “EC50 (syncytium formation)” value worked out at 0.00343 µg/mL (≈ 4.02 nM) in the data set with pNL4-3gp41(36G)V38A,N42T and 0.00288 µg/mL (≈ 3.37 nM) in the data set with pNL4-3gp41(36G)V38E,N42S. Moreover, in “in vitro”, the CC50 was 15.5 µg/mL (≈ 18200 nM).

Regarding `CC1CCCCCCC(C)C(=O)OC2C(=CCl)C=C3C2(O)C(O)C2(CO)OC2C2C4OC5(c6ccccc6)OC(C(C)C32O5)C4(O)C(O)(CO)C1` (stereo not drawn) [Compound 6, Trigocheriolide E], the “selectivity index CC50/EC50” value in the data set on HIV-1IIIB (C8166 cells, HIV-1IIIB) is given as 12193.33. For the same compound, the EC50 is 0.0015 µg/mL (≈ 2.05 nM) with HIV-1IIIB (setting [4]), 261 µM in data set [1] and 0.00176 µg/mL (≈ 2.4 nM) in data set [2]. Further, the figures for the “EC50 (syncytium formation)” value in the data set with pNL4-3gp41(36G)V38A,N42T and with pNL4-3gp41(36G)V38E,N42S were 0.00381 µg/mL (≈ 5.2 nM) and 0.00374 µg/mL (≈ 5.1 nM), respectively. Besides, the CC50 in “in vitro” was 18.3 µg/mL (≈ 24900 nM).

With Enfuvirtide, in the data set on HIV-1IIIB (1IIIB), the “anti-HIV-1 EC50 (syncytia formation induced by HIV-1IIIB)” value was found to be 0.09725 µg/mL. Further, the “EC50, inhibition of fusion of H9/HIV-1IIIB cells with uninfected C8166 cells” value in data set [3] worked out at 0.00977 µg/mL.

trigonothyrins C: the “anti-HIV-1 EC50” value with HIV-1 was 2.19 µg/mL.

For trigonothyrins F, in the data set on HIV-1, the “anti-HIV-1 EC50” value was 0.13 µg/mL.

The record behind these values is paper PMC7046902, “Daphnane Diterpenoids from Trigonostemon lii and Inhibition Activities Against HIV-1” (Natural Products and Bioprospecting, 2020).
